Here are results for twelve compounds from patent US5811454A (priority 1993, dated 1998).

pIC50: −log10 of the molar value. “Also recorded” adds a separate entry of the source. Where two headings read alike, the source gives them in different places.

The target in one data set is CPG2 (Pseudomonas sp., UniProt P06621). It counts as biochemical, bacterial.
The test system of data set [1] is colorectal cell line LS174T. As to the kind of experiment: cells. Particulars: Homo sapiens, 1 h.
Data set [2] deals with colorectal cell line LS174T.
The conditions of data set [3]: ph stat, naoh titration.

Chain of CPG2 (P06621 23-415): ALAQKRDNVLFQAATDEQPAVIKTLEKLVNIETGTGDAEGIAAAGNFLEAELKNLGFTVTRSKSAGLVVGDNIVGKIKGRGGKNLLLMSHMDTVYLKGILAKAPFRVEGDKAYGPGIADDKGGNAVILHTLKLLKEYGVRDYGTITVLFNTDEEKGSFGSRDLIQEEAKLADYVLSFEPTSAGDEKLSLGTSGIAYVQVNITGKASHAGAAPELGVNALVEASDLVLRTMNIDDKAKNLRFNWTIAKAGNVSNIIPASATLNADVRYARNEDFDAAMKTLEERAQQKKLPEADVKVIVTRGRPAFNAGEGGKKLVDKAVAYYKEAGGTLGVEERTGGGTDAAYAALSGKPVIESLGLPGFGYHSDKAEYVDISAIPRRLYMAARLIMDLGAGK

On to `CS(=O)(=O)OCCN(CCOS(C)(=O)=O)c1ccc(C(=O)N[C@@H](CCC(=O)O)C(=O)O)c(F)c1` [Compound 7, 2-fluoro, 4-[bis-[2-(mesyloxy)ethyl]amino]benzoyl-L-glutamic acid], for which the “Ability of prodrug to act as CPG2 substrate (in words)” value (shortened to “Ability of prodrug to act”) at CPG2 was “such a poor substrate that it was not possible to measure its kinetics; also recorded: very poor substrate”. The negative logarithm of the IC50 (pIC50) in data set [1] (read-out: Prodrug + CPG2 IC50) and in data set [1] (read-out: Prodrug IC50) was less than 3.10 each time.
With `CS(=O)(=O)OCCN(CCCl)c1ccc(C(=O)N[C@@H](CCC(=O)O)C(=O)O)c(F)c1` [Compound 8, 2-fluoro, 4-[(2-chloroethyl)[2-(mesyloxy)ethyl]amino]benzoyl-L-glutamic acid], at CPG2, the “Ability of prodrug to act” value is recorded as “good substrates”. The pIC50 in data set [1] (read-out: Prodrug + CPG2 IC50) and in data set [1] (read-out: Prodrug IC50) was less than 3.10 in each case.
Turning to `O=C(O)CC[C@H](NC(=O)c1ccc(N(CCCl)CCCl)cc1F)C(=O)O` [Compound 9, 2-fluoro, 4-[bis(2-chloroethyl)amino]benzoyl-L-glutamic acid], at CPG2, the “Ability of prodrug to act” value is on record as “good substrates” and the kcat turned out to be 462 S^-1. Further, the negative logarithm of the IC50 (pIC50) (commonly −log10 of the IC50, conventionally taken in molar units) in data set [2] (read-out: Prodrug + CPG2 IC50) was less than 3.10. In addition, the negative-log IC50 (pIC50) in data set [2] (read-out: Prodrug IC50) was less than 3.10.
Regarding `CS(=O)(=O)OCCN(CCCl)c1ccc(C(=O)O)c(F)c1` [Compound 11], the pIC50 in data set [1] (read-out: Active Drug IC50) is less than 3.10. Besides, the “Active Drug t1/2 (chemical half-life)” value in data set [3] is 192 min.
Regarding `CS(=O)(=O)OCCN(CCOS(C)(=O)=O)c1ccc(C(=O)N[C@@H](CCC(=O)O)C(=O)O)cc1F` [Compound 19], the “Ability of prodrug to act” value on CPG2 was “good substrates”. For the same compound, the results for the pIC50 in data set [1] (read-out: Prodrug + CPG2 IC50) and in data set [1] (read-out: Prodrug IC50) were 3.32 and less than 3.10, respectively.
Consider `CS(=O)(=O)OCCN(CCCl)c1ccc(C(=O)N[C@@H](CCC(=O)O)C(=O)O)cc1F` [Compound 20, 3-fluoro, 4-[(2-chloroethyl)[2-(mesyloxy)ethyl]amino]benzoyl-L-glutamic acid], for which the “Ability of prodrug to act” value at CPG2 is “good substrates”. For the same compound, the values for the negative-log IC50 (pIC50) in data set [1] (read-out: Prodrug + CPG2 IC50) and in data set [1] (read-out: Prodrug IC50) were 3.46 and less than 3.10, respectively. In addition, the “Prodrug t1/2 (chemical half-life)” value in data set [3] is reported as 122 min.
For `O=C(O)CC[C@H](NC(=O)c1ccc(N(CCCl)CCCl)c(F)c1)C(=O)O` [Compound 21, 3-fluoro, 4-[bis(2-chloroethyl) ,amino] benzoyl-L-glutamic acid], at CPG2, the “Ability of prodrug to act” value was “good substrates” and the kcat came to 1028 S^-1. The pIC50 in data set [2] (read-out: Prodrug + CPG2 IC50) was 3.41. Further, the pIC50 in data set [2] (read-out: Prodrug IC50) is less than 3.10.
On to `CS(=O)(=O)OCCN(CCOS(C)(=O)=O)c1ccc(C(=O)O)cc1F` [Compound 22], for which, in data set [1] (read-out: Active Drug IC50), the negative logarithm of the IC50 (pIC50) was 3.32. Moreover, the “Active Drug t1/2 (chemical half-life)” value in data set [3] is recorded as 1.9 min.
Regarding `CS(=O)(=O)OCCN(CCCl)c1ccc(C(=O)O)cc1F` [Compound 23], the negative logarithm of the IC50 (pIC50) in data set [1] (read-out: Active Drug IC50) was 3.55. In addition, the “Active Drug t1/2 (chemical half-life)” value in data set [3] is recorded as 2.4 min.
Take `CS(=O)(=O)OCCN(CCOS(C)(=O)=O)c1ccc(C(=O)N[C@@H](CCC(=O)O)C(=O)O)cc1` [Compound 25, reference compound]: the “Prodrug t1/2 (chemical half-life)” value in data set [3] was found to be 42 min.
`CS(=O)(=O)OCCN(CCCl)c1ccc(C(=O)N[C@@H](CCC(=O)O)C(=O)O)cc1` [Compound 26, 4[(2chloroethyl)[2(mesyloxy)ethyl]amino]benzoylL-glutamic acid, reference compound]: the pIC50 was 3.70 in data set [1] (read-out: Prodrug + CPG2 IC50) and less than 3.10 in data set [1] (read-out: Prodrug IC50). Further, in data set [3], the “Prodrug t1/2 (chemical half-life)” value came out at 984 min. In addition, the “Prodrug activity (increased cytotoxicity on conversion by CPG2)” value in data set [2] is “substantial prodrug activity”.
As for `CS(=O)(=O)OCCN(CCCl)c1ccc(C(=O)O)cc1` [Compound 29, reference compound], the pIC50 in data set [1] (read-out: Active Drug IC50) was 3.73. Further, the “Active Drug t1/2 (chemical half-life)” value in data set [3] was determined as 58 min.
